# Target: T1, cGMP-PDE prepared from the swine aeorta (Sus scrofa, UniProt A0A287B475)
# T1 construct: The swine aeorta was sliced; from tissue; host or cells: swine aorta, 100000×g supernatant, DEAE-Toyopearl 650S fraction
# Assay: Enzyme inhibiting action with the use of cGMP-PDE prepared from the swine aorta
# Format: biochemical
# Conditions: CaM-independent cGMP-PDE, 1 mM EGTA, 1 μM cGMP substrate, DMSO 4% or below
# Procedure: Enzyme inhibiting action with the use of cGMP-PDE prepared from the swine aeorta
# The enzymatic activity of the cGMP-PDE prepared from the swine aeorta was determined according to the method of Thompson et al. ^(1). The enzymatic activity thereof was determined in the presence of 1 mM EGTA by the use of 1 μM cGMP as a substrate. The compound of the present invention was dissolved in DMSO, added to the reaction liquid and examined for the inhibitory activity. The final concentration of DMSO in the reaction liquid was adjusted to 4% or below. (1) Thompson, W. J. and Strada, S. J., Cyclic Nucleotide Phosphodiesterase (PDE), in Methods of Enzymatic Analysis, vol 4, p.127-234, 1984.
# The swine aeorta was sliced, followed by the addition of 10 times by volume as much Buffer A (20 mM Tris/HCl, 2 mM Mg acetate, 1 mM Dithiothreitol, 5 mM EDTA, 1400 TIU/liter aprotinin, 10 mg/liter leupeptin, 1 mM benzamidine, 0.2 mM PMSF, pH 7.5). The obtained mixture was homogenized and the homogenate was centrifuged at 100000×g for one hour. The obtained supernatant was supplied a DEAE-Toyopearl 650S (Tosoh, Tokyo, Japan) column. After the column was washed with Buffer B (50 mM Tris/HCl, 0.1 mM EGTA, 2 mM Mg acetate, 1 mM Dithiothreitol, 0.2 mM PMSF, pH 7.5), gradient elution with 0.05 to 0.4M NaCl was conducted. Thus, CaM-independent cGMP-PDE fractions were obtained.
row,Structure (SMILES),IC50 [nM]
1,"Clc1ccc2ncnc(NCc3ccc4nc[nH]c4c3)c2c1 [Example 60, 4-(Benzimidazol-5-ylmethyl)amino-6-chloroquinazoline]",180
2,"COc1ccc2ncnc(NCc3ccc4c(c3)OCO4)c2c1OC [Example 72, 4-(4-Methylenedioxybenzyl)amino-5,6-dimethoxyquinazoline]",730
3,"Nc1nc(NCc2ccc3c(c2)OCO3)c2cc(Cl)ccc2n1 [Example 200, 2-Amino-4-(3,4-methylenedioxybenzyl)amino-6-chloroquinazoline]",64
4,"COc1cc2ncnc(NCc3ccc4c(c3)OCO4)c2cc1SC [Example 74, 4-(34-Methylenedioxybenzyl)amino-6-methylthio-7-methoxyquinazoline]",350
5,"O=C(O)C1CCN(c2nc3ccc(Cl)cc3n2Cc2ccc3c(c2)OCO3)CC1 [Example 280, 2-(4-Carboxypiperidino)-6-chloro-1-(3,4-methylenedioxybenzyl)benzimidazole]",250
6,"COc1ccc(CNc2nc(N3CCC(C(=O)O)CC3)nc3c(OC)c(OC)c(OC)cc23)cc1Cl [Example 232, 2-(4-Carboxypiperidino)-4-(3-chloro-4-methoxybenzyl)amino-6,7,8-trimethoxyquinazoline]",44
7,"CSc1ccc2ncnc(N(CCO)Cc3ccc4c(c3)OCO4)c2c1 [Example 54, 4-[N-(2-Hydroxyethyl)-(3,4-methylenedioxybenzyl)amino]-6-methylthioquinazoline]",470
8,"NC(=O)c1ccc2nc(N3CCC(C(=O)O)CC3)nc(NCc3ccc4c(c3)OCO4)c2c1 [Example 245, 2-(4-Carboxypiperidino)-4-(3,4-methylenedioxybenzyl)amino-6-carbamoylquinazoline]",100
9,"Nc1cc(CNc2ncnc3ccc(Cl)cc23)ccc1Cl [Example 151, 4-(3-Amino-4-chlorobenzyl)amino-6-chloroquinazoline]",81
10,"COCCOc1nc(NCc2ccc3c(c2)OCO3)c2cc(OC)ccc2n1 [Example 170, 2-(2-Methoxyethoxy)-4-(3,4-methylenedioxybenzyl)amino-6-methoxyquinazoline]",29
11,"CCOc1ccc2ncnc(NCc3ccc4c(c3)OCO4)c2c1 [Example 64, 4-(3,4-Methylenedioxybenzyl)amino-6-ethoxyquinazoline]",380
12,"COCCN(Cc1ccc2c(c1)OCO2)c1ncnc2c(OC)c(OC)c(OC)cc12 [Example 42, 4-[N-(2-Methoxyethyl)-(3,4-methylenedioxybenzyl)-amino]-6,7,8-trimethoxyquinazoline]",190
13,"C/C(=C/c1nc(NCc2ccc3c(c2)OCO3)c2cc(Cl)ccc2n1)C(=O)O [Example 123, (Z)-2-(2-carboxy-1-propenyl)-4-(3,4-methylenedioxybenzyl)amino-6-chloroquinazoline]",31
14,"CCCOc1nc(NCc2ccc3c(c2)OCO3)c2cc(OC)c(OC)c(OC)c2n1 [Example 172, 2-Propoxy-4-(3,4-methylenedioxybenzyl)amino-6,7,8-trimethoxyquinazoline]",95
15,"COc1cc2ncnc(NCc3ccc4c(c3)OCO4)c2cc1NC(C)=O [Example 73, 4-(3,4-Methylenedioxybenzyl)amino-6-acetamido-7-methoxyquinazoline]",940
16,"O=C(O)C1CCN(c2cc(NCc3ccc4c(c3)OCO4)c3cc(Cl)ccc3n2)CC1 [Example 255, 2-(4-Carboxypiperidino)-4-(3,4-methylenedioxybenzyl)amino-6chloroquinoline]",32
17,"COc1ccc2nc(OCc3ccccc3)nc(NCc3ccc4c(c3)OCO4)c2c1 [Example 91, 2-Benzyloxy-4-(4-methylenedioxybenzyl)amino-6-methoxyquinazoline]",36
18,"COc1ccc2nc(O)nc(NCc3ccc4c(c3)OCO4)c2c1 [Example 140, 2-Hydroxy-4-(3,4-methylenedioxybenzyl)amino-6-methoxyquinazoline]",680
19,"CCOC(=O)c1ccc2ncnc(NCc3ccc4c(c3)OCO4)c2c1 [Example 68, 4-(3,4-Methylenedioxybenzyl)amino-6-ethoxycarbonylquinazoline]",620
20,"COc1cc2c(NCc3ccc4c(c3)OCO4)nc(Cl)nc2c(OC)c1OC [Example 95, 2-Chloro-4-(3,4-methylenedioxybenzyl)amino-6,7,8-trimethoxyquinazoline]",200
21,"OCCCCOc1nc(NCc2ccc3c(c2)OCO3)c2cc(Cl)ccc2n1 [Example 174, 2-(4-Hydroxybutoxy)-4-(3,4-methylenedioxybenzyl)amino-6-chloroquinazoline]",4

# The remaining compounds from weak to strong by IC50, led by results:
row,IC50 [nM],Structure (SMILES)
1,24,"CCCOc1ccccc1-c1nc(NCc2ccc3c(c2)OCO3)c2cc(Cl)ccc2n1 [Example 83, 2-(2-Propoxyphenyl)-4-(3,4-methylenedioxybenzyl)amino-6-chloroquinazoline]"
2,21,"COc1ccc2nc(CO)nc(NCc3ccc4c(c3)OCO4)c2c1 [Example 139, 2-Hydroxymethyl-4-(3,4-methylenedioxybenzyl)amino-6-methoxyquinazoline]"
3,16,"CN(CCO)c1nc(NCc2ccc3c(c2)OCO3)c2cc(Cl)ccc2n1 [Example 189, 2-[N-(2-Hydroxyethyl)-N-methylamino]-4-(3,4-methylenedioxybenzyl)amino-6-chloroquinazoline]"
4,14,"O=C(O)CNc1nc(NCc2ccc3c(c2)OCO3)c2cc(Cl)ccc2n1 [Example 237, 2-(Carboxymethyl)amino-4-(3,4-methylenedioxybenzyl)amino-6-chloroquinazoline]"
5,8,"COCCOc1nc(NCc2ccc3c(c2)OCO3)c2cc(Cl)ccc2n1 [Example 164, 2-(2-Methoxyethoxy)-4-(3,4-methylenedioxybenzyl)amino-6-chloroquinazoline]"
6,7.2,"CCOC(=O)CON=Cc1nc(NCc2ccc3c(c2)OCO3)c2cc(Cl)ccc2n1 [Example 150, 2-Ethoxycarbonylmethoxyiminomethyl-4-(3,4-methylenedioxybenzyl)amino-6-chloroquinazoline]"
7,6,"N#Cc1ccc2nc(N3CCC(O)CC3)nc(NCc3ccc4c(c3)OCO4)c2c1 [Example 184, 2-(4-Hydroxypiperidino)-4-(3,4-methylenedioxybenzyl)amino-6-cyanoquinazoline]"
8,5,"OCC1CCCN1c1nc(NCc2ccc3c(c2)OCO3)c2cc(Cl)ccc2n1 (stereo not shown) [Example 190, 2-(9-Hydroxymethylpyrrolidin-1-yl)-4-(3,4-methylenedioxyybenzyl)amino-6-chloroquinazoline]"
9,5,"O=C(O)/C=C/c1nc(NCc2ccc3c(c2)OCO3)c2cc(Cl)ccc2n1 [Example 122, (E)-2-(2-Carboxyvinyl)-4-(3,4-methylenedioxybenzyl)amino-6-chloroquinazoline]"
10,5,"N#Cc1ccc2nc(N3CCOCC3)nc(NCc3ccc4c(c3)OCO4)c2c1 [Example 181, 2-Morpholino-4-(3,4-methylenedioxybenzyl)amino-6-cyanoquinazoline]"
11,5,"O=C(O)CCCNc1nc(NCc2ccc3c(c2)OCO3)c2cc(Cl)ccc2n1 [Example 238, 2-(3-Carboxypropyl)amino-4-(3,4-methylenedioxybenzyl)amino-6-chloroquinazoline]"
12,4,"CCCCCNc1nc(NCc2ccc3c(c2)OCO3)c2cc(Cl)ccc2n1 [Example 194, 2-Pentylamino-4-(3,4-methylenedioxybenzyl)amino-6-chloroquinazoline]"
13,4,"CN(CCCC(=O)O)c1nc(NCc2ccc3c(c2)OCO3)c2cc(Cl)ccc2n1 [Example 240, 2-[N-(3-Carboxypropyl)-N-methylamino]-4-(3,4-methylenedioxybenzyl)amino-6-chloroquinazoline]"
14,2.1,"COc1ccc(CNc2cc(N3CCC(C(=O)O)CC3)nc3ccc(Cl)cc23)cc1Cl [Example 256, 2-(4-Carboxypiperidino)-4-(3-chloro-4-methoxybenzyl)amino-6-chloroquinoline]"
15,2,"COc1ccc(CNc2nc(N3CCC(C(=O)O)CC3)nc3ccc(Cl)cc23)cc1Cl [Example 235, 2-(4-Carboxypiperidino)-4-(3-chloro-4-methoxybenzyl)amino-6-chloroquinazoline]"
16,1,"C/C(=C\c1nc(NCc2ccc3c(c2)OCO3)c2cc(Cl)ccc2n1)C(=O)O [Example 120, (E)-2-(2-Carboxy-1-propenyl)-4-(3,4-methylenedioxybenzyl)amino-6-chloroquinazoline]"
17,1,"COc1ccc(CNc2nc(/C=C(/C)C(=O)O)nc3ccc(Cl)cc23)cc1Cl [Example 126, (Z)-2-(2-Carboxy-1-propenyl)-4-(3-chloro-4-methoxybenzyl)amino-6-chloroquinazoline]"
18,0.52,"COc1ccc(CNc2nc(N3CCC(C(=O)O)CC3)nc3ccc(C#N)cc23)cc1Cl [Example 228, 2-(4-Carboxypiperidino)-4-(3-chloro-4-methoxybenzyl)amino-6-cyanoquinazoline]"
19,0.4,"COc1ccc(CNc2nc(N3CCOCC3)nc3ccc(C#N)cc23)cc1Cl [Example 183, 2-Morpholino-4-(3-chloro-4-methoxybenzyl)amino-6-cyanoquinazoline]"
